Reference: US20240254119A1 (THIRD HARMONIC BIO, INC., priority 2022, published 2024)
pIC50: −log10 of the molar value. Converted amounts (≈) assume the structure as drawn.

Key:
[1] = biological target: T1, BCRP (BCRP-MDCKII monolayer) (Homo sapiens, UniProt Q9UNQ0); test: MDCKII-BCRP bidirectional transport assay; format: in vitro ADME; conditions: for MDCK-BCRP: Papp A-B: apical to basolateral
T1 construct: host or cells: MDCKII (canine kidney) cells
T1 sequence (Q9UNQ0 1-655): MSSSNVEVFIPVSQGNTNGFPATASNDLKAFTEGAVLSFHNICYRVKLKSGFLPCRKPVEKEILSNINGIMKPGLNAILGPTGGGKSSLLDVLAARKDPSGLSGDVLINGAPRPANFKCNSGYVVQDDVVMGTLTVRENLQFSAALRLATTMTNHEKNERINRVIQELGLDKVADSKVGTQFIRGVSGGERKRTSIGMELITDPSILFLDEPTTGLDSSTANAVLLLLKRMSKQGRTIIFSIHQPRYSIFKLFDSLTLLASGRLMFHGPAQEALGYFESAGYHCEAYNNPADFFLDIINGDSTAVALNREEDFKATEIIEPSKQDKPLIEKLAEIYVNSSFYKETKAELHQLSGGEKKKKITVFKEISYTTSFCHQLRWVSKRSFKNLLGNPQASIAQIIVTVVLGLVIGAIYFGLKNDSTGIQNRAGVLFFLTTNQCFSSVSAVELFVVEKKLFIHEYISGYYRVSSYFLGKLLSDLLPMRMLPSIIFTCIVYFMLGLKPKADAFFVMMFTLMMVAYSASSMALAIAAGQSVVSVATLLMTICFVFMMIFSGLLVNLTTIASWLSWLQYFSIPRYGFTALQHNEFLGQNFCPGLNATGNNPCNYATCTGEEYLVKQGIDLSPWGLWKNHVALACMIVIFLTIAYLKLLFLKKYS
Procedure, shortened: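 Bidirectional A→B and B→A transport across PreadyPort BCRP-MDCKII monolayers (days 12–15) was run in duplicate for 120 min at 37° C, 5% CO2 after a 15 min preincubation. Compound levels were measured by LC-MS/MS. Papp and recovery were calculated, with efflux ratio indicating transporter engagement.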

wtKIT = biological target: T2, wtKIT (Homo sapiens, UniProt P10721); test: Caliper biochemical assay, wtKIT; conditions: Table 6, read-out: KIT Biochemical IC50 avg
T2 construct: 1888289AM in the reaction mixtures
Procedure, shortened: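 Enzyme (5.0 nM wtKIT), 1 μM FAM-labelled peptide, 400 μM ATP and 10 mM MnCl2 in HEPES pH 7.5 with 1% DMSO, incubated 3 h at 25° C. EDTA quench; substrate and phosphoproduct separated by microfluidic electrophoresis and quantified by fluorescence.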

CSF-1R = biological target: T3, CSF-1R (Homo sapiens, UniProt P07333); test: Caliper biochemical assay, CSF-1R; conditions: Table 6
T3 construct: purchased Invitrogen PV3249 (lot 662393N)
Procedure, shortened: (§1)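 Kinase, FAM-labelled peptide substrate, ATP and Mn^2+ incubated with compound for 3 h at 25° C, then quenched with EDTA buffer. Substrate and phosphorylated product separated by microfluidic electrophoresis and quantified by fluorescence intensity; no-enzyme wells define 100% inhibition.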

PDGFRα = biological target: T4, PDGFRα (Homo sapiens, UniProt P16234); test: Caliper biochemical assay, PDGFRα; conditions: Table 6
T4 construct: purchased Millipore 14-467 (lot 26321_ACTI)
Procedure, shortened: as §1

Kinetic solubility assay = format: physicochemical; conditions: for Solubility (μM): kinetic solubility, 50 mM PB (pH 7.4), shaken 24 hours at RT
Procedure, shortened: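 Test compounds from 10 mM DMSO stock were diluted in 50 mM phosphate buffer, pH 7.4, and shaken for 24 h at RT. After PTFE filtration and centrifugation, filtrate concentration was quantified by UPLC-UV/HPLC-UV against a standard curve.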

T3 sequence (P07333 20-972): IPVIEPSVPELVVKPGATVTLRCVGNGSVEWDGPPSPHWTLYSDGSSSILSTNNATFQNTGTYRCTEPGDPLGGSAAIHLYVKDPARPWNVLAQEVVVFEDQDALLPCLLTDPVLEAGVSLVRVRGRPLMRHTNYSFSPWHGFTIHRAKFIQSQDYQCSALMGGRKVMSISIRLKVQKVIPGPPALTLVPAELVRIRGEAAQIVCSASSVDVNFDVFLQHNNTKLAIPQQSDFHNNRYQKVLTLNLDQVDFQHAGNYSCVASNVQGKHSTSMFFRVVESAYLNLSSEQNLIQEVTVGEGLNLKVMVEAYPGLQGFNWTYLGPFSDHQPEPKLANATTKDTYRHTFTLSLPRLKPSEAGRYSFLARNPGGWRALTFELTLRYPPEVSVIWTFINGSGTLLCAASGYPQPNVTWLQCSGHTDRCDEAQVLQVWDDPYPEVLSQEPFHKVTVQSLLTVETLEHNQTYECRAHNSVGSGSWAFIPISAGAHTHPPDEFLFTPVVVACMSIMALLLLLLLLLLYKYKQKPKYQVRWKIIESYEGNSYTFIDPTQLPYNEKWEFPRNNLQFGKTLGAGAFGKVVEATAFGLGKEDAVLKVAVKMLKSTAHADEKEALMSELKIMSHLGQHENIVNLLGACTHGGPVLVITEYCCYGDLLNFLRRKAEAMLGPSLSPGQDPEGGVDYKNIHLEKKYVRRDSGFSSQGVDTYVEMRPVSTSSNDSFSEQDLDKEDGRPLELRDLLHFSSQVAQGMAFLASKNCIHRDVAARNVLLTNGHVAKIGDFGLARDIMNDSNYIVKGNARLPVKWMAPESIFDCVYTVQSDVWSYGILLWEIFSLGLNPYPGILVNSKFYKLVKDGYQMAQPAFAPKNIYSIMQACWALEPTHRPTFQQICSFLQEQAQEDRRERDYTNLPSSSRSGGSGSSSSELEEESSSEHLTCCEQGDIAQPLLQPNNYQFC
T4 sequence (P16234 24-1089): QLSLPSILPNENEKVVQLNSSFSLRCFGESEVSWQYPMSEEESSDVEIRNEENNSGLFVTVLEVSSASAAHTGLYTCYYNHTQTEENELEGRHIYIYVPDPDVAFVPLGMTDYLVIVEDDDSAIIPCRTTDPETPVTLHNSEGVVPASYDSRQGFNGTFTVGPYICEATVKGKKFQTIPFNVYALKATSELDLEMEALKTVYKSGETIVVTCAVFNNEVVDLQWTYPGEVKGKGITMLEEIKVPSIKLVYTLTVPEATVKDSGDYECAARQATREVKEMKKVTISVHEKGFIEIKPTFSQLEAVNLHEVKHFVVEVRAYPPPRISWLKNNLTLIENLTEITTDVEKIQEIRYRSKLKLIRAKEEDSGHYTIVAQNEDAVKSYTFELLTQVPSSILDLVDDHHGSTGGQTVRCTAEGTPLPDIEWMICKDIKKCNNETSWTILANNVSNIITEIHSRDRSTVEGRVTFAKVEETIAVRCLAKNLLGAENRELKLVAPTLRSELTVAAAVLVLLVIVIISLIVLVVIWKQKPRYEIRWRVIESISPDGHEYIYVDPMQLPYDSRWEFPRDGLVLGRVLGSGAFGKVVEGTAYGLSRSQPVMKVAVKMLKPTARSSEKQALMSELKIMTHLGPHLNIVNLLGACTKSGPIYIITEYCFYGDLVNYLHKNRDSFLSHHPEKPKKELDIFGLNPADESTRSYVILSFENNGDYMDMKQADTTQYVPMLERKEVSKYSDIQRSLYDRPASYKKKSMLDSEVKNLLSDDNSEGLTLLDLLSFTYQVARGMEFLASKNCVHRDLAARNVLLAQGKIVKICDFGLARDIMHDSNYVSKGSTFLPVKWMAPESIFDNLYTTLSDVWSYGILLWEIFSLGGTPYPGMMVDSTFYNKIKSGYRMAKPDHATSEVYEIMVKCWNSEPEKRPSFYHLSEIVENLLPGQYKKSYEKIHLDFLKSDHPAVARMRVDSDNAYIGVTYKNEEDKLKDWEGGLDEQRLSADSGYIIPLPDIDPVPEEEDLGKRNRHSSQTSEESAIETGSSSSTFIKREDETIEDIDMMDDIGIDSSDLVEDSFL
T2 sequence (P10721 26-976): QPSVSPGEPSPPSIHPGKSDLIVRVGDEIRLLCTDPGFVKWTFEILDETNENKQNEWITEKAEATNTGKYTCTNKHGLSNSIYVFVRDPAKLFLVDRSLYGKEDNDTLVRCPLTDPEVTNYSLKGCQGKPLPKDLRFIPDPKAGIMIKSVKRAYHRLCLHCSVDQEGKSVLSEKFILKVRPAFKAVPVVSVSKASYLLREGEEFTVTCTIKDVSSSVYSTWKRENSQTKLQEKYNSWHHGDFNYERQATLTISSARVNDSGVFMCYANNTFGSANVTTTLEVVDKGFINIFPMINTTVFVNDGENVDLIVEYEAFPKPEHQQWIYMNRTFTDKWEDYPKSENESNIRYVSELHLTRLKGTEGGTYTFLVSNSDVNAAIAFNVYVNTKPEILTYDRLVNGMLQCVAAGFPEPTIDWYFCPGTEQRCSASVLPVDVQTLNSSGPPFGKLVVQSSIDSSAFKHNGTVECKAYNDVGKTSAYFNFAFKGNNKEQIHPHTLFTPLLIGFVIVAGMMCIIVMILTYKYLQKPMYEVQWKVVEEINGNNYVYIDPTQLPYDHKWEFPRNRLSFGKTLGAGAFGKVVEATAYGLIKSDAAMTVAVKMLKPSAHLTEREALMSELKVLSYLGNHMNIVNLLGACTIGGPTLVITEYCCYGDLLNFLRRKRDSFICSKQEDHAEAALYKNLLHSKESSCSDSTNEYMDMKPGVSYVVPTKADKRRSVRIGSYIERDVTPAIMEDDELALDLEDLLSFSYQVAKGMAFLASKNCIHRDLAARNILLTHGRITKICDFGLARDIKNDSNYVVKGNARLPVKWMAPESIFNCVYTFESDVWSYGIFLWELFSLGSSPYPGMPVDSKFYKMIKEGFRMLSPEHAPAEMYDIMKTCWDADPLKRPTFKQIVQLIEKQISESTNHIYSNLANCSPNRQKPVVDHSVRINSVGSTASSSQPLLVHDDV

SMILES | MDCK-BCRP: Efflux Ratio [1] | MDCK-BCRP: Papp A-B [1] | pIC50 (wtKIT) | pIC50 (CSF-1R) | pIC50 (PDGFRα) | Solubility (μM) (Kinetic solubility assay) | solubility at 24 h (Kinetic solubility assay; phosphate buffer, pH 7.4, aqueous buffer, kinetic from dmso stock)
COC(=O)N1CC(c2nc(-c3ccc(Cl)c(NC(=O)c4cnc5ccccn45)c3)no2)C1 [Compound I-339] | 1.75 | 13 10^−6 cm/s | ≥ 7.30 | ≥ 7.30 | 5.30 to 6.30 | **** (a solubility less than or equal to 2 μM) | –
COC(=O)N1CC(c2nc(-c3ccc(C)c(NC(=O)c4cnc5cc(OC[C@@H](C)O)ccn45)c3)no2)C1 [Compound I-263] | 45.4 | 0.56 10^−6 cm/s | ≥ 7.30 | ≥ 7.30 | 6.30 to 7.30 | * (a solubility greater than 50 μM) | –
Cc1ccc(-c2noc(C3CN(C(=O)CO)C3)n2)cc1NC(=O)c1cnc2ccccn12 [Compound I-287] | 0.65 | 11.8 10^−6 cm/s | 6.30 to 7.30 | 4.52 to 5.30 | 4.52 to 5.30 | *** (a solubility greater than 2 μM and less than or equal to 10 μM) | –
Cc1ccc(-c2noc(CC3CC3(F)F)n2)cc1NC(=O)c1cnc2ccccn12 (stereo not shown) [Compound I-125] | 1.6 | 9.07 10^−6 cm/s | ≥ 7.30 | ≥ 7.30 | 6.30 to 7.30 | **** (a solubility less than or equal to 2 μM) | –
Cc1ccc(-c2noc(C3(N)CC4(CC(F)(F)C4)C3)n2)cc1NC(=O)c1cnc2ccccn12 [Compound I-307] | 3.77 | 7.39 10^−6 cm/s | ≥ 7.30 | ≥ 7.30 | 5.30 to 6.30 | ** (a solubility greater than 10 μM and less than or equal to 50 μM) | –
Cc1ccc(-c2noc([C@H]3C[C@@H]3F)n2)cc1NC(=O)c1cnn2ccccc12 [Compound I-109] | 1.12 | 88.7 10^−6 cm/s | – | – | – | **** (a solubility less than or equal to 2 μM) | –
COc1ccn2c(C(=O)Nc3cc(-c4noc(C5CC(F)(F)C5)n4)ccc3C)cnc2c1 [Compound I-96] | 1.44 | 8.58 10^−6 cm/s | – | – | – | **** (a solubility less than or equal to 2 μM) | –
COC(=O)N1CC(c2nc(-c3ccc(C)c(NC(=O)c4cnc5cc(OC[C@H](C)O)ccn45)c3)no2)C1 [Compound I-262] | 46.5 | 0.54 10^−6 cm/s | ≥ 7.30 | ≥ 7.30 | 6.30 to 7.30 | ** (a solubility greater than 10 μM and less than or equal to 50 μM) | –
Cc1ccc(-c2noc(C3CC(OCCF)C3)n2)cc1NC(=O)c1cnc2ccccn12 (stereo not shown) [Compound I-369] | 1.62 | 8.93 10^−6 cm/s | ≥ 7.30 | 6.30 to 7.30 | 5.30 to 6.30 | ** (a solubility greater than 10 μM and less than or equal to 50 μM) | –
Cc1ccc(-c2noc(CC(C)(C)O)n2)cc1NC(=O)c1cnc2ccccn12 [Compound I-336] | 19.9 | 1.92 10^−6 cm/s | 6.30 to 7.30 | – | – | * (a solubility greater than 50 μM) | –
Cc1ccc(-c2noc(CC(O)C(F)F)n2)cc1NC(=O)c1cnc2ccccn12 (stereo not shown) [Compound I-122] | 29.4 | 1.63 10^−6 cm/s | – | – | – | **** (a solubility less than or equal to 2 μM) | –
COc1ccn2c(C(=O)Nc3cc(-c4noc(C[C@H](C)O)n4)ccc3C)cnc2c1 [Compound I-94] | 8.04 | 5.19 10^−6 cm/s | – | – | – | **** (a solubility less than or equal to 2 μM) | –
COc1ccn2c(C(=O)Nc3cc(-c4noc(CC(O)C(F)F)n4)ccc3C)cnc2c1 (single isomer, unassigned) [Compound I-76] | – | – | – | – | – | **** (a solubility less than or equal to 2 μM) | –
Cc1ccc(-c2noc([C@H]3C[C@@H]3F)n2)cc1NC(=O)c1cnc2cc(COCC(C)(C)O)ccn12 [Compound I-71, N-[5-[5-[(1R,2S)-2-fluorocyclopropyl]-1,2,4-oxadiazol-3-yl]-2-methyl-phenyl]-7-[(2-hydroxy-2-methyl-propoxy)methyl]imidazo[1,2-a]pyridine-3-carboxamide] | – | – | ≥ 7.30 | ≥ 7.30 | 5.30 to 6.30 | – | 10 to 50 µM (≈ 4.8 to 24 µg/mL)
COc1ccn2c(C(=O)Nc3cc(-c4noc(CC5CC(F)(F)C5)n4)ccc3C)cnc2c1 [Compound I-91] | 1.76 | 1.11 10^−6 cm/s | – | – | – | **** (a solubility less than or equal to 2 μM) | –
CCOc1ccn2c(C(=O)Nc3cc(-c4noc([C@H]5C[C@@H]5F)n4)ccc3C)cnc2c1 [Compound I-93] | 1.16 | 21 10^−6 cm/s | – | – | – | **** (a solubility less than or equal to 2 μM) | –
COc1ccc2ncc(C(=O)Nc3cc(-c4noc(C[C@@H](C)O)n4)ccc3C)n2c1 [Compound I-119] | – | – | – | – | – | **** (a solubility less than or equal to 2 μM) | –
Cc1ccc(-c2noc([C@H]3C[C@@H]3F)n2)cc1NC(=O)c1cnc2cc(OC(F)(F)F)ccn12 [Compound I-87] | 0.71 | 30.4 10^−6 cm/s | – | – | – | **** (a solubility less than or equal to 2 μM) | –
Cc1ccc(-c2noc(C3(O)CC(F)(F)C3)n2)cc1NC(=O)c1cnc2ccccn12 [Compound I-380] | 14.2 | 1.21 10^−6 cm/s | ≥ 7.30 | – | – | **** (a solubility less than or equal to 2 μM) | –
COCCOCc1ccn2c(C(=O)Nc3cc(-c4noc([C@H]5C[C@@H]5F)n4)ccc3C)cnc2c1 [Compound I-84] | 2.28 | 20.7 10^−6 cm/s | – | – | – | ** (a solubility greater than 10 μM and less than or equal to 50 μM) | –
Cc1ccc(-c2noc(C3CCS(=O)(=O)C3)n2)cc1NC(=O)c1cnc2ccccn12 (racemic) [Compound I-389] | 54.3 | 0.87 10^−6 cm/s | 6.30 to 7.30 | – | – | ** (a solubility greater than 10 μM and less than or equal to 50 μM) | –
Cc1ccc(-c2cnc(N3CC(F)(F)C3)o2)cc1NC(=O)c1cnc2ccccn12 [Compound I-213] | 1.42 | 20.6 10^−6 cm/s | ≥ 7.30 | – | – | **** (a solubility less than or equal to 2 μM) | –
